Here are results for 3 molecules from patent EP3494999A1, “PSMA LIGANDS FOR IMAGING AND ENDORADIOTHERAPY” (Technische Universität München, priority 2017, dated 2019).

Data set [1] addresses T1, human serum albumin (Homo sapiens, UniProt P02768). As to the kind of experiment: Literature HSA binding of the reference substances used to calibrate the HSA column. The settings on record: logarithmic K of human serum albumin binding, from the literature HSA%. The protocol: The mobile phase was freshly prepared for each experiment and only used for one day. The column was kept at room temperature and each run was stopped after detection of the signal to reduce the acquisition time. All substances were dissolved in a 0.5mg/ml concentration in 50% 2-Propanol and 50% 50mM pH 6.9 ammonium acetate buffer. […] All nine reference substances were injected consecutively to establish a non-linear regression with OriginPro 2016G. […] Table 1: Reference substances used for the calibration of the HSA-column.

For data set [2], the target named is T1, human serum albumin. The settings on record: literature value of human serum albumin binding (Valko et al. or Yamazaki et al.); cited from earlier work.

T1 sequence (P02768 25-609): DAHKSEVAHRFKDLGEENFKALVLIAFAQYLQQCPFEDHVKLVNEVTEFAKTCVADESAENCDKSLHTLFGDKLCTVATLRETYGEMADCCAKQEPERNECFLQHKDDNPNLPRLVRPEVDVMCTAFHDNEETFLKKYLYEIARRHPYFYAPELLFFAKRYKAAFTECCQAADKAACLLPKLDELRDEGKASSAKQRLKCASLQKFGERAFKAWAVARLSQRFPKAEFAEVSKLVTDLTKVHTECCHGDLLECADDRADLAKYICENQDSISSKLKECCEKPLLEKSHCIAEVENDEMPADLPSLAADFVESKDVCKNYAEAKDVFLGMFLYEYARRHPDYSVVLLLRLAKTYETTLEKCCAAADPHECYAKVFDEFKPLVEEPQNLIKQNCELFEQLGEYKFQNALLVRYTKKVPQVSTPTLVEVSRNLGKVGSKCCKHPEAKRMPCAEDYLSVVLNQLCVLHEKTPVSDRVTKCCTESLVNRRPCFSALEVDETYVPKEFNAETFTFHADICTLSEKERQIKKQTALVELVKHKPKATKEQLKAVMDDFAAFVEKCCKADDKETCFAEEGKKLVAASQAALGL

In the case of `Nc1ccccc1` [Aniline], on human serum albumin [1], the “Log K HSA” value is reported as -0.79. Besides, the “Lit. HSA%” value on human serum albumin [2] is 14.06%.

As for `O=C(O)c1ccccc1` [Benzoic Acid], the “Log K HSA” value on human serum albumin [1] is on record as -0.29. Further, the “Lit. HSA%” value at human serum albumin [2] is reported as 34.27%.

Consider `COc1ccc(Cl)cc1C(=O)NCCc1ccc(S(=O)(=O)NC(=O)NC2CCCCC2)cc1` [Glibenclamide], for which, at human serum albumin [1], the “Log K HSA” value is 1.69. In addition, on human serum albumin [2], the “Lit. HSA%” value is 99.00%.
